Literature values as cited in patent publication US20240115654A1, “INTRAVENOUS ADMINISTRATION OF ENGINEERED ANTIMICROBIAL AMPHIPHILIC PEPTIDES” (priority 2021, published 2024).

System: Pseudomonas aeruginosa ATCC 27853 (non-MDR; QC)
Details: P. aeruginosa ATCC 27853; established CLSI QC range; cited from earlier work

For Colistin [reference compound], the “MIC QC range (in parentheses under the MIC)” value is given as “(0.5-4) μg/mL”.
